{"source": "ChEMBL document CHEMBL3414487", "about": "“Synthesis and biological activity of salinomycin conjugates with floxuridine” (Eur J Med Chem, 2015)", "key": {"[1]": {"experiment": "Antiproliferative activity against human HL60 cells assessed as growth inhibition after 72 hrs by MTT assay", "type": "functional, cell-based", "conditions": "HL-60, 72 h"}, "[2]": {"experiment": "Antiproliferative activity against human vincristine-resistant HL60/Vinc cells assessed as growth inhibition after 72 hrs by MTT assay", "type": "functional", "conditions": "Homo sapiens, HL60/vinc, 72 h"}, "LoVo": {"test_system": "LoVo", "experiment": "Antiproliferative activity against human LoVo cells assessed as growth inhibition after 72 hrs by SRB method", "type": "functional, cell-based"}, "[3]": {"experiment": "Antiproliferative activity against human doxorubicin-resistant LoVo/DX cells assessed as growth inhibition after 72 hrs by SRB method", "type": "functional, cell-based"}, "HT-29": {"test_system": "HT-29", "experiment": "Antiproliferative activity against human HT-29 cells assessed as growth inhibition after 72 hrs by SRB method", "type": "functional, cell-based"}, "[4]": {"experiment": "Antiproliferative activity against human LS180 cells assessed as growth inhibition after 72 hrs by SRB method", "type": "functional, cell-based"}, "[5]": {"experiment": "Antiproliferative activity against human SW707 cells assessed as growth inhibition after 72 hrs by SRB method", "type": "functional, cell-based"}, "BALB/3T3": {"test_system": "BALB/3T3", "experiment": "Antiproliferative activity against mouse BALB/3T3 cells assessed as growth inhibition after 72 hrs by SRB method", "type": "cell-based", "conditions": "BALB/3T3, 72 h"}, "HL-60 [6]": {"test_system": "HL-60", "experiment": "Selectivity index, ratio of IC50 for mouse BALB/3T3 cells to IC50 for human HL60 cells", "type": "functional"}, "[7]": {"experiment": "Selectivity index, ratio of IC50 for mouse BALB/3T3 cells to IC50 for human HL60/Vinc cells", "type": "functional"}, "[8]": {"experiment": "Selectivity index, ratio of IC50 for mouse BALB/3T3 cells to IC50 for human LoVo/DX cells", "type": "functional"}, "HL-60 [9]": {"test_system": "HL-60", "experiment": "Resistance index, ratio of IC50 for human HL60/Vinc cells to IC50 for human HL60 cells"}, "Staphylococcus aureus [10]": {"test_system": "Staphylococcus aureus", "experiment": "Antimicrobial activity against Staphylococcus aureus […] 4163 after 18 hrs by two-fold serial microdilution method", "type": "functional"}, "Staphylococcus aureus [11]": {"test_system": "Staphylococcus aureus", "experiment": "Antimicrobial activity against Staphylococcus aureus ATCC 25923 after 18 hrs by two-fold serial microdilution method", "type": "functional", "conditions": "ATCC 25923, 18 h"}, "Staphylococcus aureus [12]": {"test_system": "Staphylococcus aureus", "experiment": "Antimicrobial activity against Staphylococcus aureus ATCC 6538 after 18 hrs by two-fold serial microdilution method", "type": "functional", "conditions": "ATCC 6538, 18 h"}, "Staphylococcus aureus [13]": {"test_system": "Staphylococcus aureus", "experiment": "Antimicrobial activity against Staphylococcus aureus ATCC 29213 after 18 hrs by two-fold serial microdilution method", "type": "functional", "conditions": "ATCC 29213, 18 h"}, "[14]": {"test_system": "Staphylococcus epidermidis", "experiment": "Antimicrobial activity against Staphylococcus epidermidis ATCC 12228 after 18 hrs by two-fold serial microdilution method", "type": "functional", "conditions": "ATCC 12228, 18 h"}, "[15]": {"test_system": "Staphylococcus epidermidis", "experiment": "Antimicrobial activity against Staphylococcus epidermidis ATCC 35984 after 18 hrs by two-fold serial microdilution method", "type": "functional", "conditions": "ATCC 35984, 18 h"}, "Staphylococcus aureus [16]": {"test_system": "Staphylococcus aureus", "experiment": "Antimicrobial activity against methicillin-resistant Staphylococcus aureus 452/11 after 18 hrs by two-fold serial microdilution method", "type": "functional", "conditions": "452/11, 18 h"}, "Staphylococcus aureus [17]": {"test_system": "Staphylococcus aureus", "experiment": "Antimicrobial activity against methicillin-resistant Staphylococcus aureus 456/11 after 18 hrs by two-fold serial microdilution method", "type": "functional", "conditions": "456/11, 18 h"}, "Staphylococcus aureus [18]": {"test_system": "Staphylococcus aureus", "experiment": "Antimicrobial activity against methicillin-resistant Staphylococcus aureus 462/11 after 18 hrs by two-fold serial microdilution method", "type": "functional", "conditions": "462/11, 18 h"}, "Staphylococcus aureus [19]": {"test_system": "Staphylococcus aureus", "experiment": "Antimicrobial activity against methicillin-resistant Staphylococcus aureus 514/11 after 18 hrs by two-fold serial microdilution method", "type": "functional", "conditions": "514/11, 18 h"}, "Staphylococcus aureus [20]": {"test_system": "Staphylococcus aureus", "experiment": "Antimicrobial activity against methicillin-resistant Staphylococcus aureus 522/12 after 18 hrs by two-fold serial microdilution method", "type": "functional", "conditions": "522/12, 18 h"}, "Staphylococcus aureus [21]": {"test_system": "Staphylococcus aureus", "experiment": "Antimicrobial activity against methicillin-resistant Staphylococcus aureus 537/12 after 18 hrs by two-fold serial microdilution method", "type": "functional", "conditions": "537/12, 18 h"}, "Staphylococcus aureus [22]": {"test_system": "Staphylococcus aureus", "experiment": "Antimicrobial activity against methicillin-resistant Staphylococcus aureus 572/12 after 18 hrs by two-fold serial microdilution method", "type": "functional", "conditions": "572/12, 18 h"}, "Staphylococcus aureus [23]": {"test_system": "Staphylococcus aureus", "experiment": "Antimicrobial activity against methicillin-resistant Staphylococcus aureus 573/12 after 18 hrs by two-fold serial microdilution method", "type": "functional", "conditions": "573/12, 18 h"}, "Staphylococcus aureus [24]": {"test_system": "Staphylococcus aureus", "experiment": "Antimicrobial activity against methicillin-resistant Staphylococcus aureus 585/12 after 18 hrs by two-fold serial microdilution method", "type": "functional", "conditions": "585/12, 18 h"}, "Staphylococcus aureus [25]": {"test_system": "Staphylococcus aureus", "experiment": "Antimicrobial activity against methicillin-resistant Staphylococcus aureus 586/12 after 18 hrs by two-fold serial microdilution method", "type": "functional", "conditions": "586/12, 18 h"}, "[26]": {"test_system": "Staphylococcus epidermidis", "experiment": "Antimicrobial activity against methicillin-resistant Staphylococcus epidermidis 459/11 after 18 hrs by two-fold serial microdilution method", "type": "functional", "conditions": "459/11, 18 h"}, "[27]": {"test_system": "Staphylococcus epidermidis", "experiment": "Antimicrobial activity against methicillin-resistant Staphylococcus epidermidis 460/11 after 18 hrs by two-fold serial microdilution method", "type": "functional", "conditions": "460/11, 18 h"}, "[28]": {"test_system": "Staphylococcus epidermidis", "experiment": "Antimicrobial activity against methicillin-resistant Staphylococcus epidermidis 461/11 after 18 hrs by two-fold serial microdilution method", "type": "functional", "conditions": "461/11, 18 h"}, "[29]": {"test_system": "Staphylococcus epidermidis", "experiment": "Antimicrobial activity against methicillin-resistant Staphylococcus epidermidis 466/11 after 18 hrs by two-fold serial microdilution method", "type": "functional", "conditions": "466/11, 18 h"}, "[30]": {"test_system": "Staphylococcus epidermidis", "experiment": "Antimicrobial activity against methicillin-resistant Staphylococcus epidermidis 467/11 after 18 hrs by two-fold serial microdilution method", "type": "functional", "conditions": "467/11, 18 h"}, "[31]": {"test_system": "Staphylococcus epidermidis", "experiment": "Antimicrobial activity against methicillin-resistant Staphylococcus epidermidis 468/11 after 18 hrs by two-fold serial microdilution method", "type": "functional", "conditions": "468/11, 18 h"}, "[32]": {"test_system": "Staphylococcus epidermidis", "experiment": "Antimicrobial activity against methicillin-resistant Staphylococcus epidermidis 469/11 after 18 hrs by two-fold serial microdilution method", "type": "functional", "conditions": "469/11, 18 h"}, "[33]": {"test_system": "Staphylococcus epidermidis", "experiment": "Antimicrobial activity against methicillin-resistant Staphylococcus epidermidis 470/11 after 18 hrs by two-fold serial microdilution method", "type": "functional", "conditions": "470/11, 18 h"}, "[34]": {"test_system": "Staphylococcus epidermidis", "experiment": "Antimicrobial activity against methicillin-resistant Staphylococcus epidermidis 488/11 after 18 hrs by two-fold serial microdilution method", "type": "functional", "conditions": "488/11, 18 h"}, "[35]": {"test_system": "Staphylococcus epidermidis", "experiment": "Antimicrobial activity against methicillin-resistant Staphylococcus epidermidis 489/11 after 18 hrs by two-fold serial microdilution method", "type": "functional", "conditions": "489/11, 18 h"}}, "data": [{"compound": "[N-]=[N+]=N[C@H]1C[C@H](n2cc(F)c(=O)[nH]c2=O)O[C@@H]1CO", "values": [{"measurement": "IC50", "setting": "[1]", "result": 180, "unit": "µM"}, {"measurement": "IC50", "setting": "[2]", "result": 294, "unit": "µM"}, {"measurement": "inhibition (INH)", "setting": "LoVo", "result": 43, "unit": "%"}, {"measurement": "IC50", "setting": "[3]", "result": 290, "unit": "µM"}, {"measurement": "inhibition (INH)", "setting": "HT-29", "result": 25, "unit": "%"}, {"measurement": "inhibition (INH)", "setting": "[4]", "result": 25, "unit": "%"}, {"measurement": "inhibition (INH)", "setting": "[5]", "result": 41, "unit": "%"}, {"measurement": "IC50", "setting": "BALB/3T3", "result": 97.3, "unit": "µM"}, {"measurement": "Selectivity Index", "setting": "HL-60 [6]", "result": 0.54}, {"measurement": "Selectivity Index", "setting": "[7]", "result": 0.33}, {"measurement": "Selectivity Index", "setting": "[8]", "result": 0.34}, {"measurement": "Ratio IC50", "setting": "HL-60 [9]", "result": 1.63}, {"measurement": "MIC", "setting": "Staphylococcus aureus [10]", "result": 3.69, "unit": "µM"}, {"measurement": "MIC", "setting": "Staphylococcus aureus [11]", "result": 3.69, "unit": "µM"}, {"measurement": "MIC", "setting": "Staphylococcus aureus [12]", "result": 3.69, "unit": "µM"}, {"measurement": "MIC", "setting": "Staphylococcus aureus [13]", "result": 7.38, "unit": "µM"}, {"measurement": "MIC", "setting": "[14]", "result": 1.85, "unit": "µM"}, {"measurement": "MIC", "setting": "[15]", "result": 7.38, "unit": "µM"}, {"measurement": "MIC", "setting": "Staphylococcus aureus [16]", "result": 3.69, "unit": "µM"}, {"measurement": "MIC", "setting": "Staphylococcus aureus [17]", "result": 3.69, "unit": "µM"}, {"measurement": "MIC", "setting": "Staphylococcus aureus [18]", "result": 7.38, "unit": "µM"}, {"measurement": "MIC", "setting": "Staphylococcus aureus [19]", "result": 3.69, "unit": "µM"}, {"measurement": "MIC", "setting": "Staphylococcus aureus [20]", "result": 7.38, "unit": "µM"}, {"measurement": "MIC", "setting": "Staphylococcus aureus [21]", "result": 7.38, "unit": "µM"}, {"measurement": "MIC", "setting": "Staphylococcus aureus [22]", "result": 3.69, "unit": "µM"}, {"measurement": "MIC", "setting": "Staphylococcus aureus [23]", "result": 7.38, "unit": "µM"}, {"measurement": "MIC", "setting": "Staphylococcus aureus [24]", "result": 3.69, "unit": "µM"}, {"measurement": "MIC", "setting": "Staphylococcus aureus [25]", "result": 3.69, "unit": "µM"}, {"measurement": "MIC", "setting": "[26]", "result": 0.92, "unit": "µM"}, {"measurement": "MIC", "setting": "[27]", "result": 0.92, "unit": "µM"}, {"measurement": "MIC", "setting": "[28]", "result": 1.85, "unit": "µM"}, {"measurement": "MIC", "setting": "[29]", "result": 0.46, "unit": "µM"}, {"measurement": "MIC", "setting": "[30]", "result": 0.92, "unit": "µM"}, {"measurement": "MIC", "setting": "[31]", "result": 0.92, "unit": "µM"}, {"measurement": "MIC", "setting": "[32]", "result": 3.69, "unit": "µM"}, {"measurement": "MIC", "setting": "[33]", "result": 0.92, "unit": "µM"}, {"measurement": "MIC", "setting": "[34]", "result": 0.92, "unit": "µM"}, {"measurement": "MIC", "setting": "[35]", "result": 3.69, "unit": "µM"}]}]}
